Consider five compounds from patent US20180214560A1, “HPMA-DRUG CONJUGATES FOR THE TREATMENT OF ACUTE MYELOID LEUKEMIA” (University of Utah Research Foundation, priority 2015, published 2018).

pIC50: −log10 of the molar value. Read-outs that look alike come from different tables or passages of the source.

One data set has as its system HL-60 cells. The experiment in a line: Cell cycle analysis by flow cytometry (propidium iodide). It is filed as cell-based, human. The note with it: 48 h; CYT=1 μM; DAU=0.04 μM; GDC=1 μM; JSK=0.5 μM. As to the method: HL-60 cells (2×10^5 cells/mL) were seeded in 6-well plates, and treated with drug alone or different combinations of two drugs at the following concentrations for each: […] JSK=0.5 μM. Following 48-h treatment, cells were harvested, fixed and stained with propidium iodide (PI) at room temperature in the dark. Cell cycle analysis was performed by flow cytometry using BD LSR Fortessa machine (BD Biosciences, San Jose, Calif.). Cell percentages in the different phases of cell cycle were analyzed using FlowJo software (Tree star, Ashland, Oreg.).
Background: Flow cytometry measures light scatter and fluorescence of single cells or particles in a stream.

A further data set deals with HL-60 human AML cells. The experiment in a line: In vitro cytotoxicity (CCK-8 assay). It is filed as cell-based. The procedure: The cytotoxicity of free drugs (CYT, DAU, GDC, and JSK) and two polymeric conjugates (P-CYT, P-GDC) against HL-60 was measured using the CCK-8 assay (Dojindo, Kumamoto, Japan). The cells were seeded in 96-well plates at a density of 20,000 cells/well in RPMI-1640 media containing 2 mM L-glutamine and 10% FBS. Then, 50 μL media containing the drugs were added. The cells were incubated with free drugs (CYT, DAU, GDC, and JSK) or the polymeric conjugates (P-CYT, P-GDC) at a range of drug concentrations. After 48 h incubation, the number of viable cells was estimated using the CCK-8 kit according to manufacturer's protocol. After the cells were incubated with the reagent at 37° C. for 4 h, the absorbance was measured using a microplate reader at 450 nm (630 nm as reference). Viability of treated cells was calculated as a percentage of the viability of untreated controls.
In general terms: Formazan colour is commonly taken as a measure of viable cells.

For data set [1] the following is noted: 37 °C, after 48 h, 100 μg CYT/mL.
Protocol: The stability of free and HPMA copolymer-bound cytarabine in human plasma was evaluated. […] At selected time points, 5 μL tetrahydrouridine (THU, 1 mg/mL in DI H2O, used as inhibitor of cytidine deaminase to prevent cytarabine from deamination) was added to a vial containing 100 μL sample. For free drug, 1 mL of mixture of acetonitrile/methanol (9:1) was added to precipitate proteins. The vial was vortex-mixed and then centrifuged at 13,000 g for 10 min at 4° C. The supernatant was carefully transferred into a 2 mL vial that was placed into a 40° C. water bath and bubbled with nitrogen. After organic solvents were removed, the resulting dry residue was dissolved in 0.5 mL DI H2O with 0.1% TFA. The sample was filtered and then 10 μL was injected to an analytical C18 column (Zorbax 300SB, 5 μm, 4.6×250 mm) for HPLC analysis. The amount of intact CYT was calculated based on the area under the curve (AUC) recorded at 268 nm wavelength and calibration curve from a series of standard CYT concentrations. To determine the CYT stability in conjugate, 1-amino-2-propanol (10 μL) was added to the sample prior to plasma precipitation in order to cleave CYT from polymer backbone. Then the sample was examined following the same procedure as described above.
The conditions of data set [2]: humans; P-DOX in DOX equivalent; cited from earlier work.
The test system of data set [3] is DOX resistant (A2780/AD) human ovarian carcinoma xenografts. The following applies: resistant tumors (A2780/AD); cited from earlier work.
For data set [4] the following is noted: cited from earlier work.
[5] abbreviates: Homo sapiens, HL-60 cells, 48 h incubation, read-out: IC50.

As for `Nc1ccn([C@@H]2O[C@H](CO)[C@@H](O)[C@@H]2O)c(=O)n1` [CYT, cytarabine], in the data set with HL-60 cells, the “Change of G0/G1 phase population” value is recorded as “decrease in the G0/G1 population” and the “Change of S phase population” value is “arrested the cells in S phase”. Further, in the data set with HL-60 human AML cells (setting [5]), the pIC50 is 5.98. Besides, the “CYT still present in human plasma” value in data set [1] is listed as “all free drug disappeared”.
Turning to `COc1cccc2c1C(=O)c1c(O)c3c(c(O)c1C2=O)C[C@@](O)(C(C)=O)C[C@@H]3O[C@H]1C[C@H](N)[C@H](O)[C@H](C)O1` [DAU, daunorubicin], in the data set on HL-60 cells, the “Change of G0/G1 phase population” value is given as “decrease in the G0/G1 population” and the “Change of G2/M phase population” value is on record as “accumulate in the G2/M phase”. The compound further had a pIC50 in the data set with HL-60 human AML cells (Homo sapiens, HL-60, 48 h) of 7.40.
Consider `COc1cccc2c1C(=O)c1c(O)c3c(c(O)c1C2=O)C[C@@](O)(C(=O)CO)C[C@@H]3O[C@H]1C[C@H](N)[C@H](O)[C@H](C)O1` [DOX, doxorubicin], for which the “Maximum tolerated dose (MTD)” value in data set [2] is on record as 60-80 mg/m2. In data set [3], the “Decrease of tumor size” value is given as “effective only in sensitive tumors”.
Turning to `Cc1c(CN2CCN(C(=O)[C@H](C)O)CC2)sc2c(N3CCOCC3)nc(-c3cnc(N)nc3)nc12` [GDC, GDC-0980], the “Solubility of free GDC” value in data set [4] is on record as “poor solubility”. The “Change of G0/G1 phase population” value in the data set with HL-60 cells is on record as “slight increase in the G0/G1 phase population”. The pIC50 with HL-60 human AML cells (setting [5]) is 6.12.
As for `CCOC(=O)N1CCN(/[N+]([O-])=N/Oc2ccc([N+](=O)[O-])cc2[N+](=O)[O-])CC1` [JSK, JS-K], in the data set with HL-60 cells, the “Change of G0/G1 phase population” value is reported as “decrease in the G0/G1 population”, the “Change of G2/M phase population” value is “did not make significant changes in those fractions” and the “Change of S phase population” value is reported as “did not make significant changes in those fractions”. Also, in the data set with HL-60 human AML cells (HL-60 cells, 48 h incubation, read-out: IC50), the pIC50 was 6.36.

As a reminder, the pIC50 is −log10 of the IC50, conventionally taken in molar units.
